Test results taken from PubChem BioAssay AID248 (DTP/NCI, 2004).
Where “and” joins values, the source holds several entries; their conditions need not be identical. Equal values may be shown once. Inconclusive results and toxic doses are left out. No stated cut-off is given here; in the data, active means T/C of 150% or more; inactive means T/C below 125%.

Test system: L1210 leukemia ip in BDF1 mice, survival T/C
Assay: NCI In Vivo Anticancer Drug Screen. Data for tumor model L1210 Leukemia (intraperitoneal) in B6D2F1 (BDF1) mice
Details: endpoint: mean survival time, higher = longer survival
Method in brief: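 Ratio derived from survival: compound-dosed mice over vehicle-dosed mice, all bearing a transplantable tumor.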

[1] = dose: 100.0 mg/kg/injection, schedule: Q01DX009 (ip), vehicle: Klucel (hydroxypropylcellulose) (HPC)
[2] = dose: 100.0 mg/kg/injection, schedule: Q04DX003 (ip), vehicle: Klucel (hydroxypropylcellulose) (HPC)
[3] = dose: 200.0 mg/kg/injection, schedule: Q04DX003 (ip), vehicle: Klucel (hydroxypropylcellulose) (HPC)
[4] = dose: 400.0 mg/kg/injection, schedule: Q04DX003 (ip), vehicle: Klucel (hydroxypropylcellulose) (HPC)
[5] = dose: 100.0 mg/kg/injection, schedule: Q04DX002 (ip), vehicle: Klucel (hydroxypropylcellulose) (HPC)
[6] = dose: 200.0 mg/kg/injection, schedule: Q04DX002 (ip), vehicle: Klucel (hydroxypropylcellulose) (HPC)
[7] = dose: 400.0 mg/kg/injection, schedule: Q04DX002 (ip), vehicle: Klucel (hydroxypropylcellulose) (HPC)

Measured: T/C

CCC(CO)NC(=O)/C=C/c1ccccc1 (configuration not stated)
inactive: dose: 100.0 mg/kg/injection, schedule: Q01DX001 (ip), vehicle: saline with Tween-80 101 % of control | dose: 100.0 mg/kg/injection, schedule: Q04DX003 (ip), vehicle: saline with Tween-80 97 % of control | dose: 200.0 mg/kg/injection, schedule: Q01DX001 (ip), vehicle: saline with Tween-80 94 % of control | dose: 200.0 mg/kg/injection, schedule: Q04DX003 (ip), vehicle: saline with Tween-80 97 % of control | dose: 400.0 mg/kg/injection, schedule: Q01DX001 (ip), vehicle: saline with Tween-80 100 % of control | dose: 400.0 mg/kg/injection, schedule: Q04DX003 (ip), vehicle: saline with Tween-80 91 % of control

CN(C)Cc1ccccc1C(=O)C(c1ccccc1)c1ccccc1
inactive: dose: 55.0 mg/kg/injection, schedule: Q01DX Z (ip), vehicle: methylcellulose (MC) 100 % of control | dose: 83.0 mg/kg/injection, schedule: Q01DX Z (ip), vehicle: methylcellulose (MC) 94 % of control

COc1c(O)ccc2c1-c1c3c(cc4c1C(C2)NCC4)OCO3 (configuration not stated)
inactive: dose: 100.0 mg/kg/injection, schedule: Q01DX001 (ip), vehicle: saline 102 % of control

Cc1cccc(NS(=O)(=O)c2ccc(Cl)cc2)c1C
inactive: [1] 109 % of control | [2] 96 % of control | dose: 200.0 mg/kg/injection, schedule: Q01DX009 (ip), vehicle: Klucel (hydroxypropylcellulose) (HPC) 105 % of control | [3] 94 % of control | dose: 400.0 mg/kg/injection, schedule: Q01DX009 (ip), vehicle: Klucel (hydroxypropylcellulose) (HPC) 94 % of control | [4] 103 % of control

NC(N)=N/N=C(\CBr)c1ccc([N+](=O)[O-])cc1
inactive: dose: 15.0 mg/kg/injection, schedule: Q01DX Z (ip), vehicle: carboxymethylcellulose (CMC) 97 % of control | dose: 30.0 mg/kg/injection, schedule: Q01DX Z (ip), vehicle: carboxymethylcellulose (CMC) 92 % of control | dose: 30.0 mg/kg/injection, schedule: Q01DX Z (oral), vehicle: carboxymethylcellulose (CMC) 100 % of control | dose: 60.0 mg/kg/injection, schedule: Q01DX Z (ip), vehicle: carboxymethylcellulose (CMC) 98 % of control and 91 % of control | dose: 60.0 mg/kg/injection, schedule: Q01DX Z (oral), vehicle: carboxymethylcellulose (CMC) 103 % of control | dose: 120.0 mg/kg/injection, schedule: Q01DX Z (ip), vehicle: carboxymethylcellulose (CMC) 92 % of control | dose: 120.0 mg/kg/injection, schedule: Q01DX Z (oral), vehicle: carboxymethylcellulose (CMC) 102 % of control | dose: 240.0 mg/kg/injection, schedule: Q01DX Z (oral), vehicle: carboxymethylcellulose (CMC) 92 % of control

NC(=O)C(Cc1cnc[nH]1)NC(=O)OCc1ccccc1 (configuration not stated)
inactive: dose: 100.0 mg/kg/injection, schedule: Q01DX009 (ip), vehicle: saline with Tween-80 91 % of control | dose: 200.0 mg/kg/injection, schedule: Q01DX009 (ip), vehicle: saline with Tween-80 96 % of control | dose: 400.0 mg/kg/injection, schedule: Q01DX009 (ip), vehicle: saline with Tween-80 105 % of control

O=Cc1c(Cl)n(-c2ccccc2)c2ccccc12
inactive: dose: 50.0 mg/kg/injection, schedule: Q04DX002 (ip), vehicle: Klucel (hydroxypropylcellulose) (HPC) 97 % of control | [5] 97 % of control | [6] 87 % of control

COC(=O)C(=O)CC(=O)c1cccc(C)c1
inactive: [5] 100 % of control | [6] 103 % of control | [7] 92 % of control

O=C1OCC/C1=C\OCCCO/C=C1\CCOC1=O
inactive: [5] 100 % of control | [6] 87 % of control | [7] 97 % of control

Cc1ncc(CO)c(/C=N\OCc2cc(Cl)sc2Cl)c1O
inactive: [2] 93 % of control | [3] 93 % of control | [4] 104 % of control

O=N[O-].O=N[O-].O=N[O-].O=N[O-].O=N[O-].O=N[O-].[Ni]
inactive: dose: 25.0 mg/kg/injection, schedule: Q04DX002 (ip), vehicle: saline 106 % of control | dose: 50.0 mg/kg/injection, schedule: Q04DX002 (ip), vehicle: saline 113 % of control | dose: 100.0 mg/kg/injection, schedule: Q04DX002 (ip), vehicle: saline 106 % of control

CN(CC(=O)O)C(=N)N
inactive: dose: 100.0 mg/kg/injection, schedule: Q01DX001 (ip), vehicle: carboxymethylcellulose (CMC) 92 % of control | dose: 200.0 mg/kg/injection, schedule: Q01DX001 (ip), vehicle: carboxymethylcellulose (CMC) 94 % of control | dose: 250.0 mg/kg/injection, schedule: Q01DX Z (ip), vehicle: saline 94 % of control | dose: 400.0 mg/kg/injection, schedule: Q01DX001 (ip), vehicle: carboxymethylcellulose (CMC) 97 % of control | dose: 500.0 mg/kg/injection, schedule: Q01DX Z (ip), vehicle: saline 104 % of control | dose: 1000.0 mg/kg/injection, schedule: Q01DX Z (ip), vehicle: saline 107 % of control | dose: 1500.0 mg/kg/injection, schedule: Q#A X Z (ip), vehicle: water 117 % of control | dose: 2500.0 mg/kg/injection, schedule: Q#A X Z (ip), vehicle: water 95 % of control

O=C(O)COc1ccccc1
inactive: dose: 25.0 mg/kg/injection, schedule: Q01DX009 (ip), vehicle: Klucel (hydroxypropylcellulose) (HPC) 108 % of control | dose: 50.0 mg/kg/injection, schedule: Q01DX009 (ip), vehicle: Klucel (hydroxypropylcellulose) (HPC) 105 % of control | [1] 93 % of control and 88 % of control
